Source: publication PMC6005341, “Identification of “sarsasapogenin-aglyconed” timosaponins as novel Aβ-lowering modulators of amyloid precursor protein processing” (Chemical Science, 2016)

Legend:
Neuro-2A cells = test: Neurite outgrowth, type III β-tubulin immunostaining; format: cell-based; details: at concentrations that lower Aβ production, 18 h
Experimental: Immunofluorescence examination of neurite outgrowth: Neuro-2A cells were seeded at 1×105 per glass bottom dishes. After treatment, cells were fixed with 4% paraformaldyde for 10 min, permeabilized with 0.1% Triton X-100, and then blocked with 1% BSA in PBS.
The cells were incubated with monoclonal antibody raised against type III β-tubulin (Sigma) for 1 h followed by Alexa488 conjugated secondary antibody. Neurite morphology was examined under fluorescence microscope. […]

[1] = tested on: animal models of dementia; parameters: method as in PMID 19426756, PMID 16226729, PMID 17566650; details: oral administration; cited from earlier work
Aβ42 levels in the brain = test: In vivo brain Aβ42 level by ELISA after oral dosing; details: 100 mg kg^–1 oral gavage, three times in 2 days, 3–5 month old C57BL/6 mice
Experimental: was performed at least three times. The lowest binding scores were computed and the conformations of the corresponding binding pose presented.
Quantum mechanics/Molecular mechanics. The binding between transmembrane and substrate was further optimized using the QM/MM approach and NWChem software. The quantum part (QM) included TAIII (total 116 atoms), while the rest of the system was modelled as the molecular mechanics (MM) level. The QM region was treated at the DFT level using the B3LYP method. The 6-31G* Pople basis set was employed for all the atoms.
The transmembrane was described with the AMBER parm99 force field. The binding structure was solvated in a cubic box with 6872 classical SPC/E water molecules. Three negative counter ions (Cl-) were added to neutralize the charges in the system. The structure was optimized by performing the BFGS algorithm for the QM part and the steepest descent algorithm for the MM part. The optimization of these two regions (QM and MM) was alternated until self-consistency was reached.
Animal experiments: Male C57BL/6N mice were housed in environmentally controlled room (temperature: 25 ± 2 °C, humidity: 50 ± 5%, 12-h light-dark cycle) in Laboratory Animal Unit, The University of Hong Kong and were freely access to food and water. TAIII, TAI SSG and compound 34 were dissolved in 5% Tween 80 and given to the mice by oral gavage at three repeated doses of 100 mg/kg in 48 hours. Mice were administrated with 5% Tween 80 (control group), TAIII, TAI SSG and 34. The experimental procedures were performed with the approval of Committee of Use of Live Animal for Teaching and Research of The University of Hong Kong. Blood (about 600-800 µL) was collected by cardiac puncture and added with 1/10 volume of Na2EDTA (20 mg/mL) to prevent coagulation. After centrifugation at 3000 g for 15 min at 4 °C, plasma was transferred to a centrifuge tube. […] Both plasma and brain samples were stored at -80 °C until they were analyzed. The Aβ42 levels were determined by Wako High Sensitive Aβx-42 ELISA kit. […]

[2] = tested on: Aβ40 and Aβ38 in N2A-APPswe cells; test: Aβ40 and Aβ38 in conditioned medium of N2A-APPswe cells by ELISA; format: cell-based; details: compared with Aβ42
Experimental: Aβ ELISA: Aβ concentrations in conditioned medium were assayed using ELISA kits for […]

purified BACE1 = molecular target: T1, purified BACE1 (Homo sapiens, UniProt P56817); test: β-Secretase assay with purified BACE1; format: biochemical
T1 construct: purchased Millipore
T1 sequence (P56817 46-501, species assumed): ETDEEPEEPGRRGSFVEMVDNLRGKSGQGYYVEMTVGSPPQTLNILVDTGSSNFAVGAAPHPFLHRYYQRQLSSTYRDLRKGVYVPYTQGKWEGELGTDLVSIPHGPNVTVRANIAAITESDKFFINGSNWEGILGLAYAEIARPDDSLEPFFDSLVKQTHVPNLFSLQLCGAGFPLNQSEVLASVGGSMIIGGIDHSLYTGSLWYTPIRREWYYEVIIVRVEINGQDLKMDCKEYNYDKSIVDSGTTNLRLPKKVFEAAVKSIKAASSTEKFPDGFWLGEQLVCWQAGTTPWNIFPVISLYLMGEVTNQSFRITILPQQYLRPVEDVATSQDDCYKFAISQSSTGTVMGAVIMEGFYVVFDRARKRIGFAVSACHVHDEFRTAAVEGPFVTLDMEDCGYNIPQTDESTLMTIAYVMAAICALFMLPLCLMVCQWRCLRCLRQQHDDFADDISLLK
Experimental: mM MES, pH5.5. Protein extracts (10 µg) were incubated with testing compounds or vehicle for 1 h at room temperature. The β-secretase activities were assayed by adding 10 µM fluorogenic β-secretase substrate (Millipore) to the reaction mixtures and the fluorescence (excitation, 380; emission, 460) were measured. β-Secretase assays were also performed using purified BACE1 (Millipore) at 100 ng in a buffer containing 50 mM MES, pH 5.5. […]

SMILES | neurite outgrowth (Neuro-2A cells) | memory dysfunction [1] | reduction of Aβ42 levels in the brain (Aβ42 levels in the brain) | effect on Aβ40 and Aβ38 [2] | activities of purified BACE1 (purified BACE1)
C[C@H]1CC[C@@]2(OC1)O[C@H]1C[C@H]3[C@@H]4CC[C@@H]5C[C@@H](O)CC[C@]5(C)[C@H]4CC[C@]3(C)[C@H]1[C@@H]2C [SSG (1), sarsasapogenin] | markedly stimulated | improve |  |  | 
C[C@H]1CC[C@@]2(OC1)O[C@H]1C[C@H]3[C@@H]4CC[C@@H]5C[C@@H](O[C@@H]6O[C@H](CO)[C@H](O)[C@H](O)[C@H]6O)CC[C@]5(C)[C@H]4CC[C@]3(C)[C@H]1[C@@H]2C [TAI (3), timosaponin A I] |  |  | 87% ± 14% | much smaller effect | 
C[C@H]1CC[C@@]2(OC1)O[C@H]1C[C@H]3[C@@H]4CC[C@@H]5C[C@@H](O[C@@H]6O[C@H](CO)[C@H](O)[C@H](O)[C@H]6O[C@@H]6O[C@H](CO)[C@@H](O)[C@H](O)[C@H]6O)CC[C@]5(C)[C@H]4CC[C@]3(C)[C@H]1[C@@H]2C [TAIII (2), timosaponin A III] |  | improve | 83% ± 13% | much smaller effect | did not affect
